In the NIST ThermoML archive (doi:10.1016/j.fluid.2006.01.014):
± gives the expanded uncertainty stated by the source.

conditions: Liquid; Ebulliometric method (Recirculating still)

Normal boiling temperature [°C] | SMILES
80.01 ± 0.2 | c1ccccc1 [benzene]
70.31 ± 0.2 | C[Si](C)(Cl)Cl [dichlorodimethylsilane]
66.4 ± 0.2 | C[Si](Cl)(Cl)Cl [trichloromethylsilane]
